From the NIST ThermoML archive (doi:10.1007/s10765-011-0996-9)
± gives the expanded uncertainty stated by the source.

Experiment: cn = amount concentration of the nth substance listed, in mol/dm3
Conditions: 101 kPa, Liquid, Capillary tube (Ostwald / Ubbelohde) method, c1 = 2

Row | SMILES | viscosity (298.15 K) [mPa·s] | viscosity (303.15 K) [mPa·s] | viscosity (308.15 K) [mPa·s] | viscosity (313.15 K) [mPa·s] | viscosity (318.15 K) [mPa·s] | viscosity (323.15 K) [mPa·s]
1 | O=[N+]([O-])[O-].[K+] [potassium nitrate] + O | 0.8985 ± 0.0072 | 0.8134 ± 0.0066 | 0.7473 ± 0.0061 | 0.6857 ± 0.0057 | 0.6322 ± 0.0054 | 0.5838 ± 0.005
2 | [Cl-].[K+] [potassium chloride] + O | 0.9063 ± 0.0073 | 0.8279 ± 0.0067 | 0.7573 ± 0.0062 | 0.6954 ± 0.0058 | 0.64 ± 0.0054 | 0.5914 ± 0.0051
